Measurements: patent US11607414B2, “Small molecule inhibitors of EGFR and PI3K” (The Regents of the University of Michigan, priority 2014, dated 2023)

Molecular target: EGFR (Homo sapiens, UniProt P00533)
Assay: Z'-LYTE biochemical kinase assay, EGFR
Method: Various compounds were tested for their ability to inhibit EGFR and PIK3CA. The assays determining inhibitions are given in Example 2 Assays-Z′-LYTE® and ADAPTA.
Assays: The Z′-LYTE® biochemical assay employs a fluorescence-based, coupled-enzyme format and is based on the differential sensitivity of phosphorylated and non-phosphorylated peptides to proteolytic cleavage (FIG. 6). The peptide substrate is labeled with two fluorophores—one at each end— that make up a FRET pair. In the primary reaction, the kinase transfers the gamma-phosphate of ATP to a single tyrosine, serine or threonine residue in a synthetic FRET-peptide. […] A ratiometric method, which calculates the ratio (the Emission Ratio) of donor emission to acceptor emission after excitation of the donor fluorophore at 400 nm, is used to quantitate reaction progress.
A significant benefit of this ratiometric method for quantitating reaction progress is the elimination of well-to-well variations in FRET-peptide concentration and signal intensities. […]
Both cleaved and uncleaved FRET-peptides contribute to the fluorescence signals and therefore to the Emission Ratio. The extent of phosphorylation of the FRET-peptide can be calculated from the Emission Ratio. […]
Bar-coded Corning, low volume NBS, black 384-well plate (Corning Cat. 4514) 1. […] Read on fluorescence plate reader and analyze the data.

EGFR, sequence (P00533 25-1210): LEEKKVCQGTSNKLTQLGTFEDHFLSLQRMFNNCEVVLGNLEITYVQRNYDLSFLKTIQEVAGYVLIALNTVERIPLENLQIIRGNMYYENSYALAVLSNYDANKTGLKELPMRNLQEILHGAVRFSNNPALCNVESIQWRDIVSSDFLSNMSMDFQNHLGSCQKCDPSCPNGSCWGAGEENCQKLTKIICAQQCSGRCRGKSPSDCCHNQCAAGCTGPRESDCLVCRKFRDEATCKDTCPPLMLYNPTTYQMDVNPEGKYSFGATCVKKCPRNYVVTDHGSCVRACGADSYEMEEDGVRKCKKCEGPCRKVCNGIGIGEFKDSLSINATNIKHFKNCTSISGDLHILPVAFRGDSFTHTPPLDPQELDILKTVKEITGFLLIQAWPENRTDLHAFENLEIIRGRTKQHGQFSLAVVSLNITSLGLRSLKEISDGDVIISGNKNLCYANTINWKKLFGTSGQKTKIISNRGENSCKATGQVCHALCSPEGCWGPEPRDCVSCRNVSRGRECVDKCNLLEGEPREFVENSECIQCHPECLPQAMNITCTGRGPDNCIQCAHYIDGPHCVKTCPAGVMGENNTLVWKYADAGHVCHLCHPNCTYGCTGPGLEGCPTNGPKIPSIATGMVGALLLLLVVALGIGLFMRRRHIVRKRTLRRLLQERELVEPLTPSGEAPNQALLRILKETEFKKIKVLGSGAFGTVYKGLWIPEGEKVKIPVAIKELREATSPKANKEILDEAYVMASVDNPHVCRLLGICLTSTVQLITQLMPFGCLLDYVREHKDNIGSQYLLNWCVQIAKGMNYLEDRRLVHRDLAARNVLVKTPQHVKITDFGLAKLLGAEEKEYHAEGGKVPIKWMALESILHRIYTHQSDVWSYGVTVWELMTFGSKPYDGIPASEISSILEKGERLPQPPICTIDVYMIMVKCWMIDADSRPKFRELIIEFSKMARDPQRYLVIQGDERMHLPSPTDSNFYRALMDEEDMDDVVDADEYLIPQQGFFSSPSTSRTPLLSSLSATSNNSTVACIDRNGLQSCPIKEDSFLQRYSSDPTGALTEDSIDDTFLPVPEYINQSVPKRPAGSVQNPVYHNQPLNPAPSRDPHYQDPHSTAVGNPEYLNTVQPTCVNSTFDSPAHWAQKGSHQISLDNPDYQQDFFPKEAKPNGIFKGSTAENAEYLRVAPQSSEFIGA

In the case of `CS(=O)(=O)Nc1cncc(-c2ccc3ncnc(Nc4cccc(Cl)c4)c3c2)c1` [MOL-162, N-(5-(4-((3-chlorophenyl)amino)quinazolin-6-yl)pyridin-3-yl)methanesulfonamide], the “inhibition of / potency against purified EGFR (in words)” value is reported as “potent dual inhibition”.
